Molecular target: T1, PIK3C2A (PI3K-C2 alpha) (Homo sapiens, UniProt O00443)
T1 construct: purchased Thermo Fisher Scientific (Life Technologies) SelectScreen
Assay: SelectScreen Adapta
Type: biochemical
Experimental: The in vitro kinase selectivity of NU5455 was determined using the SelectScreen Broad Assay Panel (Thermo Fisher Scientific) involving activity and binding assays (Supplemental Table 1). […] Class IA PI3Ks were measured using the p85α subunit.
Kinase [ATP] % Assay Kinase [ATP] % Assay Kinase [ATP] % Assay Kinase [ATP] % Assay
DNA-PK Km app 98.3 Z LATS2 n/a 4.7 L KIT D820E n/a 1.3 L GSK3B (GSK3 beta) Km app -2.5 Z
PIK3C3 (hVPS34) Km app 85.9 A PRKCZ (PKC zeta) Km app 4.7 Z GRK1 n/a 1.3 L BMPR2 n/a -2.5 L
PIK3C2B (PI3K-C2 beta) 10 28.9 A FGFR1 Km app 4.7 Z BRSK2 n/a 1.2 L CDC42 BPB (MRCKB) Km app -2.5 Z
SNF1LK2 Km app 26.6 Z MINK1 Km app 4.6 Z NUAK1 (ARK5) Km app 1.2 A AMPK (A2/B2/G2) n/a -2.6 L
HCK Km app 18.0 Z CSF1R (FMS) Km app 4.3 Z CDK9/cyclin K n/a 1.0 L PRKG1 Km app -2.7 Z
NEK2 Km app 17.8 Z CSNK1G3 (CK1 gamma 3) Km app 4.2 Z NUAK2 n/a 1.0 L KIT T670E n/a -2.8 L
ALK Km app 17.3 Z STK32C (YANK3) n/a 4.2 L CDK2/cyclin O n/a 0.9 L ERBB4 (HER4) Km app -2.8 Z
FGFR3 K650M n/a 16.5 L STK22D (TSSK1) Km app 4.2 Z CAMKK2 (CaMKK beta) n/a 0.9 L PLK4 n/a -2.8 L
SIK3 n/a 16.1 L TAOK3 (JIK) n/a 4.2 L FGFR3 Km app 0.9 Z GRK7 Km app -3.0 Z
LYN A Km app 15.2 Z RPS6KA4 (MSK2) Km app 4.2 Z ULK2 n/a 0.9 L MAPKAPK2 Km app -3.1 Z
BMPR1B (ALK6) n/a 14.5 L PTK2B (FAK2) Km app 4.2 Z KIT D816V n/a 0.9 L FGFR4 Km app -3.1 Z
INSRR (IRR) Km app 14.1 Z CLK2 Km app 4.1 Z CAMK1 (CaMK1) 10 0.8 A CASK n/a -3.1 L
PLK2 Km app 14.1 Z STK24 (MST3) Km app 4.1 Z PTK6 (Brk) Km app 0.7 Z GRK5 Km app -3.2 Z
PRKACA (PKA) Km app 14.0 Z CAMK1D (CaMKI delta) Km app 4.1 Z CAMK2B (CaMKII beta) Km app 0.7 Z EGFR (ErbB1) T790M Km app -3.3 Z
EIF2AK2 (PKR) n/a 13.3 L INSR Km app 4.1 Z ACVR1 (ALK2) n/a 0.7 L PAK4 Km app -3.3 Z
PRKX Km app 12.5 Z IRAK1 Km app 4.0 A ABL1 H396P n/a 0.6 L DAPK3 (ZIPK) Km app -3.4 Z
FGR Km app 12.1 Z SRC N1 Km app 3.9 Z MERTK (cMER) A708S n/a 0.6 L RET M918T n/a -3.5 L
CLK1 Km app 11.7 Z SRPK2 Km app 3.9 Z MAPKAPK5 (PRAK) Km app 0.6 Z PRKCQ (PKC theta) Km app -3.7 Z
MARK3 Km app 11.4 Z RPS6KA6 (RSK4) Km app 3.8 Z AKT1 (PKB alpha) Km app 0.5 Z CAMKK1 (CAMKKA) n/a -3.8 L
PDGFRB (PDGFR beta) Km app 11.0 Z GRK6 Km app 3.7 Z NTRK3 (TRKC) Km app 0.4 Z FLT3 D835Y Km app -3.9 Z
PRKCN (PKD3) Km app 10.7 Z PKN1 (PRK1) Km app 3.6 Z ZAP70 Km app 0.3 Z ROCK2 Km app -4.1 Z
STK16 (PKL12) n/a 10.5 L MAP3K8 (COT) 100 3.5 Z CSNK1A1 (CK1 alpha 1) Km app 0.3 Z CHUK (IKK alpha) Km app -4.2 A
FES (FPS) Km app 10.4 Z FLT4 (VEGFR3) Km app 3.5 Z MYLK (MLCK) n/a 0.2 L AXL Km app -4.2 Z
ABL1 Km app 10.4 Z GRK4 Km app 3.5 Z MKNK2 (MNK2) n/a 0.2 L PIM2 Km app -4.3 Z
MUSK Km app 10.3 Z FRK (PTK5) Km app 3.4 Z AMPK (A1/B1/G3) n/a 0.2 L PAK1 Km app -4.4 Z
MAPK1 (ERK2) Km app 10.1 Z FYN A n/a 3.3 L MAP3K2 (MEKK2) n/a 0.1 L BMPR1A (ALK3) n/a -4.4 L
BRAF 100 9.9 Z CDK1/cyclin A2 n/a 3.3 L CDK8/cyclin C n/a 0.1 L STK4 (MST1) Km app -4.4 Z
IGF1R Km app 9.7 Z KIT V559D T670I n/a 3.1 L MARK2 Km app 0.1 Z PRKCH (PKC eta) Km app -4.6 Z
MAPK14 (p38 alpha) Km app 9.7 Z SPHK2 10 3.1 A ICK n/a 0.0 L SGKL (SGK3) Km app -4.6 Z
LCK Km app 9.6 Z FGFR3 G697C n/a 3.1 L FGFR2 Km app 0.0 Z PI4KB (PI4K beta) Km app -4.7 A
MAPK11 (p38 beta) Km app 9.5 Z RIPK2 n/a 3.1 L AKT2 (PKB beta) Km app 0.0 Z PRKCE (PKC epsilon) Km app -4.9 Z
SRC Km app 9.5 Z PAK6 Km app 3.0 Z EPHB2 Km app -0.1 Z PHKG1 Km app -5.0 Z
CHEK1 (CHK1) Km app 9.3 Z LYN B Km app 3.0 Z TGFBR2 n/a -0.1 L PDGFRA D842V Km app -5.0 Z
CAMK2D (CaMKII delta) Km app 9.3 Z DAPK2 n/a 2.9 L TEK (Tie2) Km app -0.1 Z PRKG2 (PKG2) Km app -5.1 Z
PLK1 Km app 9.2 Z EPHA4 Km app 2.9 Z AURKA (Aurora A) Km app -0.1 Z TYRO3 (RSE) Km app -5.1 Z
RET Y791F Km app 9.2 Z PIK3CG (p110 gamma) Km app 2.9 A KIT D816H n/a -0.2 L TAOK2 (TAO1) Km app -5.1 Z
FLT3 Km app 9.1 Z HIPK1 (Myak) Km app 2.8 Z KIT N822K n/a -0.2 L EPHB4 Km app -5.3 Z
MAPK10 (JNK3) 100 9.0 Z ADRBK2 (GRK3) Km app 2.8 Z PRKACG (PRKAC gamma) n/a -0.2 L AURKC (Aurora C) Km app -5.4 Z
CSNK2A2 (CK2 alpha 2) Km app 8.7 Z STK17B (DRAK2) n/a 2.7 L TEK (TIE2) Y1108F n/a -0.3 L JAK1 Km app -5.7 Z […]

T1 sequence (O00443 whole entry): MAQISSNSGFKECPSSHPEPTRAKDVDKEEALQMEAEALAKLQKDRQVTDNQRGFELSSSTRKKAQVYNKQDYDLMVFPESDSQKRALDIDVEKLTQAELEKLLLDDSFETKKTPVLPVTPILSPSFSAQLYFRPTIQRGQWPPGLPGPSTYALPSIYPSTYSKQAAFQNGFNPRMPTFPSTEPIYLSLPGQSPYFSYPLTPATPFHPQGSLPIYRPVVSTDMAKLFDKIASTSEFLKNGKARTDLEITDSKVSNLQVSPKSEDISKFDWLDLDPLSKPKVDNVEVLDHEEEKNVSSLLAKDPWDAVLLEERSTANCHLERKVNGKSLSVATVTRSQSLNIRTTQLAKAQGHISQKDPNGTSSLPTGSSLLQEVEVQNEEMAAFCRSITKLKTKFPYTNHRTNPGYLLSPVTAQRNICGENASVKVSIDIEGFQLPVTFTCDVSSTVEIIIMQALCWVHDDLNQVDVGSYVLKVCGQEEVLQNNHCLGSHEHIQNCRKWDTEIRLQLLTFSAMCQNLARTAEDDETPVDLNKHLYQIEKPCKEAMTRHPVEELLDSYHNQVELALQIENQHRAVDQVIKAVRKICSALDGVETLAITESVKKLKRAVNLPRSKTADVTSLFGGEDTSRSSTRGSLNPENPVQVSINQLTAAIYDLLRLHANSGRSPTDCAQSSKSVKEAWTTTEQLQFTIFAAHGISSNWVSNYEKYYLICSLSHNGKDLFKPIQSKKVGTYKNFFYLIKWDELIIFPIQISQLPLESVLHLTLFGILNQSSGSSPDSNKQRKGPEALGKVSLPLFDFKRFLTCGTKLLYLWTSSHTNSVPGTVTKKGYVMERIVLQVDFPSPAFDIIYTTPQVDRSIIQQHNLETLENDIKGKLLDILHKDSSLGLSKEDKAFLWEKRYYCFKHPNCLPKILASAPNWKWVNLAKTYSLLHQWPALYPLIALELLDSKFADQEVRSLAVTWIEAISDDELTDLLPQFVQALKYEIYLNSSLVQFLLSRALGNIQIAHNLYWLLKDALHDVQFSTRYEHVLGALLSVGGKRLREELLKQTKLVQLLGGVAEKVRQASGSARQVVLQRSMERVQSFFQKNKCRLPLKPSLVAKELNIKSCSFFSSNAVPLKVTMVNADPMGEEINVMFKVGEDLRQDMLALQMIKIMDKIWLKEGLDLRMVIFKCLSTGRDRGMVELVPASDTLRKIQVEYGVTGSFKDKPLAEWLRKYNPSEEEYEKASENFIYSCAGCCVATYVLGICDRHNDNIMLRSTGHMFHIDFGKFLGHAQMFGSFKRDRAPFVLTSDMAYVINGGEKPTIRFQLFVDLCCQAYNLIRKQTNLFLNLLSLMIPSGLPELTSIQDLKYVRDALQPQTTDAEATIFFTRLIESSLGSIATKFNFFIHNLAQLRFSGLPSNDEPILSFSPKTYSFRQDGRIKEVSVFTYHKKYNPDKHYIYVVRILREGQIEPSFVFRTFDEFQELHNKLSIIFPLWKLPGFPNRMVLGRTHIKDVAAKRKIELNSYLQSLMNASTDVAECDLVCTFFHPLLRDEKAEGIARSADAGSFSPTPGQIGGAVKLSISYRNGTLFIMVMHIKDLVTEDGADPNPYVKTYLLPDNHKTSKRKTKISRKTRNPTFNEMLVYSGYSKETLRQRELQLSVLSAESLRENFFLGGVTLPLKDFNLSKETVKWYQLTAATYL

## CN(C(=O)CN1CCOCC1)c1ccc2sc3c(-c4cccc5c(=O)cc(N6CC7CCC(C6)O7)oc45)cccc3c2c1 [NU5455]
  inhibition at 1 µM: 1.3%
